This note sets out measurements from US9096586B2, “Therapeutic compounds” (Gilead Sciences, Inc., priority 2012, dated 2015).

This test has as its system HIV-IIIb. Put plainly: Test A: Antiviral Assays in MT4 Cells. It is filed as cell-based. The note with it: Human immunodeficiency virus 1, IIIB, MT4, 120 h, MT-4 cells infected with HIV-IIIb (0.004 m.o.i.), 5 days incubation, CellTiter-Glo readout. The procedure: Test A: Antiviral Assays in MT4 Cells
For the antiviral assay utilizing MT-4 cells, 0.4 μL of […] test concentration of 3-fold serially diluted compound in DMSO was added to 40 μL of cell growth medium (RPMI 1640, 10% FBS, 1% penicilline/Streptomycine, 1% L-Glutamine, 1% HEPES) in each well of 384-well assay plates (10 concentrations) in quadruplicate.
1 mL aliquots of 2×10e6 MT-4 cells are pre-infected for 1 and 3 hrs respectively, @ 37° C. with 25 uL (MT4) or of either cell growth medium (mock-infected) or a fresh 1:250 dilution of an HIV-IIIb concentrated ABI stock (0.004 m.o.i. for MT4 cells). Infected and uninfected cells are diluted in cell growth medium and 35 uL of 2000 (for MT4) cells is added to each well of the assay plates.
Assay plates were then incubated in a 37° C. incubator. After 5 days of incubation, 25 μl of 2× concentrated CellTiter-Glo™ Reagent (catalog #G7573, Promega Biosciences, Inc., Madison, Wis.) was added to each well of the assay plate. Cell lysis was carried out by incubating at room temperature for 2-3 min and then chemiluminescence was read using the Envision reader (PerkinElmer).
Accordingly, the compounds disclosed herein (e.g. compound of the invention) may be useful for treating the proliferation of the HIV virus, treating AIDS or delaying the onset of AIDS or ARC symptoms.
`Cc1cc2nc(-c3ccnc(-c4cnn(Cc5ccccc5)c4)c3)sc2c(-c2ccc(Cl)cc2)c1[C@H](OC(C)(C)C)C(=O)O` [Compound 150]: the EC50 came to 91 nM. Next, `Cc1cc2nc(-c3cnc4[nH]cc(C)c4c3)sc2c(-c2ccc(Cl)cc2)c1[C@](C)(OC(C)(C)C)C(=O)O` [Compound 112, (S)-methyl 2-tert-butoxy-2-(7-(4-chlorophenyl)-5-methyl-2-(3-methyl-1H-pyrrolo[2,3-b]pyridin-5-yl)benzo[d]thiazol-6-yl)acetic acid]: 28 nM. Next, `Cc1cc2nc(N3CCC(Oc4ccccc4)C3)sc2c(-c2ccc(Cl)cc2)c1[C@H](OC(C)(C)C)C(=O)O` (stereo partly drawn) [Compound 126, (2S)-2-tert-butoxy-2-(7-(4-chlorophenyl)-5-methyl-2-(3-phenoxypyrrolidin-1-yl)benzo[d]thiazol-6-yl)acetic acid]: 722 nM.
